Reference: the supplement of paper PMC10307832

compound: C1CSC2=C(C(=O)N1)SC3=C2C=C(C=C3)O [kb NB 142-70] + Cc1cc(Nc2cc(N3CCN(C)CC3)nc(Sc3ccc(NC(=O)C4CC4)cc3)n2)n[nH]1 [Tozasertib] (partner 0.1 µM); experiment: relative viability (nuclei count vs DMSO), 5 days (fraction); higher = more cells survive; details: first compound 0.1 µM
In short: (§1)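 Lung cancer cell lines were pin-tool dosed in 1536-well plates on the day after seeding, with either a lone drug or a fixed anchor-drug dose plus five library-drug doses (not always all listed) in √10 steps. Nuclei were counted on 4× images after 5 days. Relative viability is the ratio of treated-well to vehicle-well nuclei counts, with each value a median of duplicate plates.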

**Q.** For SK-LU-1, which relative viability is on record?
**A.** 0.339

**Q.** Which relative viability does the source give for NCI-H2228 here?
**A.** 0.254

**Q.** With NCI-H2023 as the cell line, how does the relative viability read?
**A.** 0.367

same assay, conditions: first compound 1 µM

**Q.** Which relative viability does the source give for NCI-H2342 here?
**A.** 0.614

**Q.** With NCI-H1623 as the cell line, how does the relative viability read?
**A.** 0.433

**Q.** Which relative viability does the source give for NCI-H727 here?
**A.** 0.541

**Q.** For NCI-H1650, which relative viability is on record?
**A.** 0.334

**Q.** NCI-H1993 was tested. Which relative viability did it give?
**A.** 0.648

**Q.** How did the relative viability turn out when SW 1573 was run?
**A.** 0.182

**Q.** Which relative viability does the source give for NCI-H838 here?
**A.** 0.249

**Q.** How did the relative viability turn out when LCLC-103H was run?
**A.** 0.524

**Q.** How did the relative viability turn out when NCI-H520 was run?
**A.** 0.517

**Q.** How did the relative viability turn out when NCI-H2126 was run?
**A.** 0.858

**Q.** EMC-BAC-2 was tested. Which relative viability did it give?
**A.** 0.302

**Q.** NCI-H2085 was tested. Which relative viability did it give?
**A.** 0.825

**Q.** How did the relative viability turn out when HCC-366 was run?
**A.** 0.176

**Q.** For NCI-H1666, which relative viability is on record?
**A.** 0.614

**Q.** With NCI-H596 as the cell line, how does the relative viability read?
**A.** 0.881

**Q.** With LK-2 as the cell line, how does the relative viability read?
**A.** 0.167

**Q.** With NCI-H2087 as the cell line, how does the relative viability read?
**A.** 0.201

**Q.** How did the relative viability turn out when NCI-H1648 was run?
**A.** 0.524

**Q.** Which relative viability does the source give for SK-MES-1 here?
**A.** 0.85

**Q.** H3255 was tested. Which relative viability did it give?
**A.** 0.785

**Q.** How did the relative viability turn out when COR-L23 was run?
**A.** 0.157

**Q.** How did the relative viability turn out when COR-L 105 was run?
**A.** 0.287

**Q.** With LOU-NH91 as the cell line, how does the relative viability read?
**A.** 0.557

**Q.** Which relative viability does the source give for HCC-44 here?
**A.** 0.901

**Q.** NCI-H522 was tested. Which relative viability did it give?
**A.** 0.565

**Q.** How did the relative viability turn out when HCC-78 was run?
**A.** 0.468

**Q.** Which relative viability does the source give for NCI-H2009 here?
**A.** 0.649

**Q.** Which relative viability does the source give for NCI-H661 here?
**A.** 0.356

**Q.** How did the relative viability turn out when SK-LU-1 was run?
**A.** 0.282

**Q.** Which relative viability does the source give for NCI-H2228 here?
**A.** 0.217

**Q.** With NCI-H2023 as the cell line, how does the relative viability read?
**A.** 0.358

same assay, conditions: first compound 3.162 µM

**Q.** NCI-H2342 was tested. Which relative viability did it give?
**A.** 0.544

**Q.** How did the relative viability turn out when NCI-H1623 was run?
**A.** 0.379

**Q.** Which relative viability does the source give for NCI-H727 here?
**A.** 0.514

**Q.** Which relative viability does the source give for NCI-H1650 here?
**A.** 0.339

**Q.** For NCI-H1993, which relative viability is on record?
**A.** 0.536

**Q.** Which relative viability does the source give for SW 1573 here?
**A.** 0.146

**Q.** Which relative viability does the source give for NCI-H838 here?
**A.** 0.271

**Q.** With LCLC-103H as the cell line, how does the relative viability read?
**A.** 0.417

**Q.** With NCI-H520 as the cell line, how does the relative viability read?
**A.** 0.37

**Q.** For NCI-H2126, which relative viability is on record?
**A.** 0.823

**Q.** Which relative viability does the source give for EMC-BAC-2 here?
**A.** 0.261

**Q.** NCI-H2085 was tested. Which relative viability did it give?
**A.** 0.661

**Q.** With HCC-366 as the cell line, how does the relative viability read?
**A.** 0.118

**Q.** Which relative viability does the source give for NCI-H1666 here?
**A.** 0.479

**Q.** For NCI-H596, which relative viability is on record?
**A.** 0.749

**Q.** LK-2 was tested. Which relative viability did it give?
**A.** 0.189

**Q.** How did the relative viability turn out when NCI-H2087 was run?
**A.** 0.141

**Q.** For NCI-H1648, which relative viability is on record?
**A.** 0.398

**Q.** Which relative viability does the source give for SK-MES-1 here?
**A.** 0.221

**Q.** For H3255, which relative viability is on record?
**A.** 0.746

**Q.** COR-L23 was tested. Which relative viability did it give?
**A.** 0.134

**Q.** Which relative viability does the source give for COR-L 105 here?
**A.** 0.255

**Q.** How did the relative viability turn out when LOU-NH91 was run?
**A.** 0.338

**Q.** For HCC-44, which relative viability is on record?
**A.** 0.722

**Q.** For NCI-H522, which relative viability is on record?
**A.** 0.61

**Q.** How did the relative viability turn out when HCC-78 was run?
**A.** 0.411

**Q.** Which relative viability does the source give for NCI-H2009 here?
**A.** 0.48

**Q.** For NCI-H661, which relative viability is on record?
**A.** 0.353

**Q.** How did the relative viability turn out when SK-LU-1 was run?
**A.** 0.182

**Q.** For NCI-H2228, which relative viability is on record?
**A.** 0.146

**Q.** For NCI-H2023, which relative viability is on record?
**A.** 0.276

compound: C1CSC2=C(C(=O)N1)SC3=C2C=C(C=C3)O [kb NB 142-70] + NC(=O)Nc1cc(-c2cccc(F)c2)sc1C(=O)N[C@H]1CCCNC1 [AZD7762] (partner 0.2 µM); experiment: as above; details: first compound 0.1 µM
In short: as §1

**Q.** For NCI-H2342, which relative viability is on record?
**A.** 0.548

**Q.** Which relative viability does the source give for NCI-H727 here?
**A.** 0.531

**Q.** How did the relative viability turn out when NCI-H1703 was run?
**A.** 0.125

**Q.** How did the relative viability turn out when NCI-H1993 was run?
**A.** 0.73

**Q.** How did the relative viability turn out when NCI-H838 was run?
**A.** 0.938

**Q.** Which relative viability does the source give for LCLC-103H here?
**A.** 0.766

**Q.** For NCI-H2126, which relative viability is on record?
**A.** 0.925

**Q.** How did the relative viability turn out when EMC-BAC-2 was run?
**A.** 1.13

**Q.** For NCI-H2085, which relative viability is on record?
**A.** 1.02

**Q.** Which relative viability does the source give for HCC-366 here?
**A.** 0.277
